# Reference: ChEMBL document CHEMBL5727912, “Benzenesulfonamide compounds and their use as therapeutic agents” (2020)
# Legend:
# [1] = In Vitro Assay: In general, Trex HEK293 cells were stably transfected with an inducible expression vector containing the full-length cDNA coding for the desired human sodium channel α-subunit and with an expression vector containing full length cDNA coding for the β1-subunit. Sodium channel expressing cell lines were induced with tetracycline (1 μg/mL) and plated on 384-well PDL-coated plates at …
# [2] = as above; remark: listed apart in the source
Structure (SMILES),IC50 [1],IC50 [2]
"C[C@@H](c1c(F)ccc(F)c1CNc1cc(F)c(S(=O)(=O)Nc2cscn2)c(F)c1)N1C2CCC1CC2 (single isomer, unassigned)",> 30 µM,> 30 µM
"C[C@H](c1c(F)ccc(F)c1CNc1cc(F)c(S(=O)(=O)Nc2cscn2)c(F)c1)N1C2CCC1CC2 (single isomer, unassigned)",> 30 µM,> 30 µM
